Test results reported in patent publication US9944602B2, “Piperidinone herbicides” (E. I. DU PONT DE NEMOURS AND COMPANY, priority 2014, dated 2018).

How the values were obtained:
Type in all cases: in vivo
[1] = test system: barnyardgrass (Echinochloa crus-galli); experiment: Test A preemergence barnyardgrass; settings: 0 to 100 scale
Summary of the method: (§1)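 Directed soil spray at planting gives preemergence data; foliar application to one- to two-leaf plants gives postemergence data. Response is visual injury relative to untreated controls about 10 d after treatment, scored 0–100.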

[2] = test system: crabgrass, large (large crabgrass, Digitaria sanguinalis); experiment: Test A preemergence crabgrass, large; settings: 0 to 100 scale
From the text: (§2) Seeds of plant species selected from barnyardgrass (Echinochloa crus-galli), kochia (Kochia scoparia), ragweed (common ragweed, Ambrosia elatior), ryegrass, Italian (Italian ryegrass, Lolium multiflorum), crabgrass, large (large crabgrass, Digitaria sanguinalis), foxtail, giant (giant foxtail, Setaria faberii), morningglory (Ipomoea spp.), pigweed (Amaranthus retroflexus), velvetleaf (Abutilon theophrasti), wheat (Triticum aestivum), and corn (Zea mays) were planted into a blend of loam soil and sand and treated preemergence with a directed soil spray using test chemicals formulated in a non-phytotoxic solvent mixture which included a surfactant.
(§3) At the same time, plants selected from these crop and weed species and also blackgrass (Alopecurus myosuroides), and galium (catchweed bedstraw, Galium aparine) were planted in pots containing the same blend of loam soil and sand and treated with postemergence applications of test chemicals formulated in the same manner. Plants ranged in height from 2 to 10 cm and were in the one- to two-leaf stage for the postemergence treatment. Treated plants and untreated controls were maintained in a greenhouse for approximately 10 d, after which time all treated plants were compared to untreated controls and visually evaluated for injury. Plant response ratings, summarized in Table A, are based on a 0 to 100 scale where 0 is no effect and 100 is complete control. A dash (-) response means no test result.

[3] = test system: foxtail, giant (giant foxtail, Setaria faberii); experiment: Test A preemergence foxtail, giant; settings: 0 to 100 scale, 0 no effect, 100 complete control
Summary of the method: as §1

[4] = test system: morningglory (Ipomoea spp.); experiment: Test A preemergence morningglory; settings: 0 to 100 scale, 0 no effect, 100 complete control
From the text: as §2, §3

[5] = test system: pigweed (Amaranthus retroflexus); experiment: Test A preemergence pigweed; settings: 0 to 100 scale, 0 no effect, 100 complete control
Summary of the method: as §1

[6] = test system: velvetleaf (Abutilon theophrasti); experiment: Test A preemergence velvetleaf; settings: 0 to 100 scale, 0 no effect, 100 complete control
From the text: as §2, §3

[7] = test system: wheat (Triticum aestivum); experiment: Test A preemergence wheat; settings: 0 to 100 scale, 0 no effect, 100 complete control
From the text: as §2, §3

corn (Zea mays) [8] = experiment: Test A preemergence corn; settings: 0 to 100 scale
From the text: as §2, §3

[9] = test system: barnyardgrass (Echinochloa crus-galli); experiment: Test A postemergence barnyardgrass; settings: 0 to 100 scale, 0 is no effect, 100 is complete control
Summary of the method: as §1

[10] = test system: crabgrass, large (large crabgrass, Digitaria sanguinalis); experiment: Test A postemergence crabgrass, large; settings: 0 to 100 scale, 0 is no effect, 100 is complete control
From the text: as §2, §3

[11] = test system: foxtail, giant (giant foxtail, Setaria faberii); experiment: Test A postemergence foxtail, giant; settings: 0 to 100 scale, 0 is no effect, 100 is complete control
Summary of the method: as §1

[12] = test system: morningglory (Ipomoea spp.); experiment: Test A postemergence morningglory; settings: 0 to 100 scale, 0 is no effect, 100 is complete control
From the text: as §2, §3

[13] = test system: pigweed (Amaranthus retroflexus); experiment: Test A postemergence pigweed; settings: 0 to 100 scale, 0 is no effect, 100 is complete control
Summary of the method: as §1

[14] = test system: velvetleaf (Abutilon theophrasti); experiment: Test A postemergence velvetleaf; settings: 0 to 100 scale, 0 is no effect, 100 is complete control
From the text: as §2, §3

[15] = test system: wheat (Triticum aestivum); experiment: Test A postemergence wheat; settings: 0 to 100 scale, 0 is no effect, 100 is complete control
Summary of the method: as §1

corn (Zea mays) [16] = experiment: Test A postemergence corn; settings: 0 to 100 scale, 0 is no effect, 100 is complete control
Summary of the method: as §1

rice (Oryza sativa) = experiment: Test B flooded paddy test rice; settings: Table B, Flood, 250 g ai/ha, scale 0 to 100
Summary of the method: (§4)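 Once seedlings reached two leaves, pots were flooded 3 cm deep and treated via the paddy water, which remained at that level. Evaluation was visual, against controls, after 13 to 15 d under greenhouse conditions.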

[17] = test system: sedge, umbrella (small-flower umbrella sedge, Cyperus difformis); experiment: Test B flooded paddy test sedge, umbrella; settings: Table B, Flood, 250 g ai/ha, scale 0 to 100
Summary of the method: as §4

[18] = test system: ducksalad (Heteranthera limosa); experiment: Test B flooded paddy test ducksalad; settings: Table B, Flood, 250 g ai/ha, scale 0 to 100
Summary of the method: as §4

[19] = test system: barnyardgrass (Echinochloa crus-galli); experiment: Test B flooded paddy test barnyardgrass; settings: Table B, Flood, 250 g ai/ha, scale 0 to 100
Summary of the method: as §4

[20] = 125 g ai/ha, 0 no effect, 100 complete control
[21] = 500 g ai/ha, 0 is no effect, 100 is complete control

For `O=C1NCCC(c2ccc(F)cc2)C1C(=O)Nc1ccccc1F` (racemic) [Compound 5], the “Barnyardgrass plant response rating” value [1, 20] was 0, the “Plant response rating, Barnyardgrass” value [1, 21] was 30 and the “Crabgrass, Large plant response rating” value [2, 20] was 60. The “Plant response rating, Crabgrass, Large” value [2, 21] was 90, the “Foxtail, Giant plant response rating” value ([3]; 125 g ai/ha) was 30 and the “Foxtail, Giant plant response rating” value ([3]; 500 g ai/ha) was 50. For the same compound, the “Morningglory plant response rating” value ([4]; 125 g ai/ha) was 0, the “Morningglory plant response rating” value ([4]; 500 g ai/ha) was 0 and the “Pigweed plant response rating” value ([5]; 125 g ai/ha) was 0. For the same compound, the “Pigweed plant response rating” value ([5]; 500 g ai/ha) was 0, the “Velvetleaf plant response rating” value ([6]; 125 g ai/ha) was 0 and the “Velvetleaf plant response rating” value ([6]; 500 g ai/ha) was 0. For the same compound, the “Wheat plant response rating” value ([7]; 125 g ai/ha) was 0, the “Wheat plant response rating” value ([7]; 500 g ai/ha) was 0 and the “Corn plant response rating” value (corn (Zea mays) [8]; [20]) was 0. The “Plant response rating, Corn” value (corn (Zea mays) [8]; [21]) was 0, the “Plant response rating, Barnyardgrass” value ([9]; 125 g ai/ha) was 0 and the “Plant response rating, Barnyardgrass” value ([9]; 500 g ai/ha) was 30. For the same compound, the “Plant response rating, Crabgrass, Large” value ([10]; 125 g ai/ha) was 0, the “Plant response rating, Crabgrass, Large” value ([10]; 500 g ai/ha) was 0 and the “Plant response rating, Foxtail, Giant” value ([11]; 125 g ai/ha) was 0. For the same compound, the “Plant response rating, Foxtail, Giant” value ([11]; 500 g ai/ha) was 0, the “Plant response rating, Morningglory” value ([12]; 125 g ai/ha) was 0 and the “Plant response rating, Morningglory” value ([12]; 500 g ai/ha) was 0. For the same compound, the “Plant response rating, Pigweed” value ([13]; 125 g ai/ha) was 0, the “Plant response rating, Pigweed” value ([13]; 500 g ai/ha) was 0 and the “Plant response rating, Velvetleaf” value ([14]; 125 g ai/ha) was 0. The “Plant response rating, Velvetleaf” value ([14]; 500 g ai/ha) was 0, the “Plant response rating, Wheat” value ([15]; 125 g ai/ha) was 0 and the “Plant response rating, Wheat” value ([15]; 500 g ai/ha) was 0. For the same compound, the “Plant response rating, Corn” value (corn (Zea mays) [16]; 125 g ai/ha) was 0, the “Plant response rating, Corn” value (corn (Zea mays) [16]; 500 g ai/ha) was 0 and the Plant response rating (rice (Oryza sativa)) was 0. It also gave a Plant response rating [17] of 0, a Plant response rating [18] of 0 and a Plant response rating [19] of 0.
